Assay results published in the supplement of paper PMC10307832.

Key:
Assay in all cases: relative viability (nuclei count vs DMSO), 5 days (fraction); higher = more cells survive
[1] = compound: CCN(CCO)CCCC(C)Nc1ccnc2cc(Cl)ccc12 [Hydroxychloroquine] + CC(C)C[C@H](NC(=O)[C@H](Cc1ccccc1)NC(=O)c1cnccn1)B(O)O [Bortezomib] (partner 0.002 µM)
Method in brief: (§1)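 Lung cancer cell lines in 1536-well plates were dosed by pin tool the day after seeding, either with one drug alone or with a fixed anchor-drug dose plus five library-drug doses (not always all listed) in √10 steps. After 5 days, cells were fixed and their nuclei stained in one step (final 0.05% Triton X-100, 1% formaldehyde, 1 ug/ml Hoechst), then counted on 4× images. Relative viability is the nuclei count in treated wells divided by that in vehicle wells. Values are medians of duplicate plates.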

[2] = compound: CCN(CCO)CCCC(C)Nc1ccnc2cc(Cl)ccc12 [Hydroxychloroquine] + CC(=O)Nc1cccc(-n2c(=O)n(C3CC3)c(=O)c3c(Nc4ccc(I)cc4F)n(C)c(=O)c(C)c32)c1 [Trametinib] (partner 0.02 µM)
Method in brief: as §1

[3] = compound: CCN(CCO)CCCC(C)Nc1ccnc2cc(Cl)ccc12 [Hydroxychloroquine] + O=C(c1cc(Cc2n[nH]c(=O)c3ccccc23)ccc1F)N1CCN(C(=O)C2CC2)CC1 [Olaparib] (partner 8 µM)
Method in brief: as §1

[4] = compound: CCN(CCO)CCCC(C)Nc1ccnc2cc(Cl)ccc12 [Hydroxychloroquine] + CS(=O)(=O)N1CCN(Cc2cc3nc(-c4cccc5[nH]ncc45)nc(N4CCOCC4)c3s2)CC1 [Pictilisib] (partner 1 µM)
Method in brief: as §1

Row | Cell Line | relative viability ([1]; first compound 0.5 µM) | relative viability ([1]; first compound 1.581 µM) | relative viability ([1]; first compound 5 µM) | relative viability ([1]; first compound 15.81 µM) | relative viability ([1]; first compound 50 µM) | relative viability ([2]; first compound 0.5 µM) | relative viability ([2]; first compound 1.581 µM) | relative viability ([2]; first compound 5 µM) | relative viability ([2]; first compound 15.81 µM) | relative viability ([2]; first compound 50 µM) | relative viability ([3]; first compound 0.5 µM) | relative viability ([3]; first compound 1.581 µM) | relative viability ([3]; first compound 5 µM) | relative viability ([3]; first compound 15.81 µM) | relative viability ([3]; first compound 50 µM) | relative viability ([4]; first compound 0.5 µM) | relative viability ([4]; first compound 1.581 µM) | relative viability ([4]; first compound 5 µM) | relative viability ([4]; first compound 15.81 µM) | relative viability ([4]; first compound 50 µM)
1 | NCI-H1792 | 0.979 | 0.955 | 1.02 | 1.05 | 1.17 | 0.496 | 0.464 | 0.474 | 0.387 | 0.378 | 0.461 | 0.413 | 0.195 | 0.439 | 0.433 | 0.286 | 0.256 | 0.254 | 0.26 | 0.249
2 | NCI-H1915 | 1.07 | 0.953 | 1.02 | 0.923 | 1.03 | 0.328 | 0.251 | 0.325 | 0.311 | 0.306 | 0.244 | 0.243 | 0.262 | 0.275 | 0.265 | 0.973 | 0.869 | 0.947 | 0.895 | 0.978
3 | NCI-H1975 | 0.343 | 0.333 | 0.342 | 0.379 | 0.354 | 0.36 | 0.322 | 0.341 | 0.38 | 0.321 | 0.816 | 0.767 | 0.856 | 0.85 | 0.911 | 0.292 | 0.26 | 0.305 | 0.263 | 0.328
4 | NCI-H1993 | 1.01 | 0.884 | 1.04 | 1.13 | 1.03 | 0.525 | 0.589 | 0.597 | 0.551 | 0.469 | 1.24 | 1.04 | 1.14 | 0.61 | 1.11 | 0.824 | 0.961 | 0.625 | 0.81 | 0.789
5 | NCI-H2009 | 1.02 | 1.04 | 0.956 | 0.963 | 1.07 | 0.308 | 0.247 | 0.328 | 0.272 | 0.259 | 0.672 | 0.72 | 0.7 | 0.698 | 0.695 | 0.844 | 0.776 | 0.901 | 0.803 | 0.989
6 | NCI-H2023 | 1.06 | 0.942 | 1.01 | 0.964 | 1.03 | 0.529 | 0.492 | 0.504 | 0.53 | 0.503 | 0.566 | 0.405 | 0.501 | 0.479 | 0.466 | 0.332 | 0.23 | 0.23 | 0.224 | 0.249
7 | NCI-H2085 | 0.987 | 0.94 | 1.24 | 1.07 | 1.1 | 0.7 | 0.527 | 0.619 | 0.518 | 0.53 | 0.74 | 0.769 | 0.817 | 0.739 | 0.774 | 0.434 | 0.509 | 0.462 | 0.392 | 0.472
